Patent publication US6127131A (Synaptic Pharmaceutical Corporation, priority 1998, dated 2000)

Legend:
[1] = target: T1, glycine transporter encoded by rB20a (Rattus norvegicus, UniProt P28572); assay: Competition for [3H]glycine uptake by COS-7 cells transfected with rB20a; format: cell-based; details: agents at 1 mM (Table 1)
T1 construct: expressed in transfected cells; host or cells: COS-7 cells, transient transfection with pSVL-rB20a
T1 sequence (P28572 1-638): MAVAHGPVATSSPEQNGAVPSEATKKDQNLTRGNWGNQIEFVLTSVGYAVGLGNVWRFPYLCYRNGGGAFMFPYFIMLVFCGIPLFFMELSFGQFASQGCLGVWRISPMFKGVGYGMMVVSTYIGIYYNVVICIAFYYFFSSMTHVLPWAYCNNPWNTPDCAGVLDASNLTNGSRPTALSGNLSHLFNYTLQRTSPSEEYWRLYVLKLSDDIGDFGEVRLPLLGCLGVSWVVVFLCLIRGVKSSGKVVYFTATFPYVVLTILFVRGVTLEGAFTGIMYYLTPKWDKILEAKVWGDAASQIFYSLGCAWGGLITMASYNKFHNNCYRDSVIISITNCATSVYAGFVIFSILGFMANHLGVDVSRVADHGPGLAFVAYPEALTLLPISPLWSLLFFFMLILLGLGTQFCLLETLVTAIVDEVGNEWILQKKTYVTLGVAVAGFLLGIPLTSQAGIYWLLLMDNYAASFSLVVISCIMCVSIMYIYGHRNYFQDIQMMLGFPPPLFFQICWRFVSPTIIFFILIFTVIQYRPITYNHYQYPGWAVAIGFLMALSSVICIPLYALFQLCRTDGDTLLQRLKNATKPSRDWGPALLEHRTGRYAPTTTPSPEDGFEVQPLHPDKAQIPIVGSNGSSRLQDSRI
Method: These two clones were constructed into a full-length clone (designated rB20a) by ligation at their internal Nco I sites and then cloned into the eukaryotic expression vector pSVL (Pharmacia LKB Biotechnology, Piscataway, N.J.). Transient transfection of COS cells was carried out using DEAE-dextran with DMSO according to the method of Lopata et al. (1984) with minor modifications. COS cells were grown in six-well plates (37° C.,5%CO2) in high glucose Dulbecco's modified Eagle medium supplemented with 10% bovine calf serum, 100 U/ml penicillin G, and 100 μg/ml streptomycin sulfate. Cells were routinely used two days after transfection for transport studies.
(§1) Plates were incubated at 37° C. for 10 or 20 minutes, then washed rapidly 3× with HBS. Cells were solubilized with 0.05% sodium deoxycholate/0.1N NaOH (1 ml/well), 0.5 ml aliquots were removed, neutralized with 1N HCl, and radioactivity was determined by scintillation counting. Protein was quantified in an aliquot of the solubilized cells with the Bradford Reagent (Biorad, Richmond, Calif.), according to the manufacturer's directions.
Nonspecific uptake was determined with 1 mM

[2] = target: T2, transporter encoded by rB20a (Rattus norvegicus, UniProt P28572); assay: Screen of COS cells transfected with rB20a for transport of radiolabeled neurotransmitters and amino acids; format: cell-based; details: data not shown
T2 sequence (P28572 1-638): T1 sequence (P28572 1-638)
Method: as §1

Row | Compound | competition for [3H]glycine uptake (in words) [1] | effect of rB20a expression on uptake of the radiolabeled substrate [2]
1 | N[C@@H](CO)C(=O)O [L-serine] | Neither α-(methylamino) isobutyric acid (1 mM), a substrate for system A, nor L-serine (1 mM), a substrate for system ASC, significantly competed | 
2 | [^3 H]glutamate |  | did not significantly alter
3 | CNC(C)(C)C(=O)O [α-(methylamino) Isobutyric acid] | Neither α-(methylamino) isobutyric acid (1 mM), a substrate for system A, nor L-serine (1 mM), a substrate for system ASC, significantly competed | 
